# According to patent US7947284B2, “Purified component of blue-green algae and method of use” (Desert Lake Technologies, priority 2005, dated 2011):
# Test system: CXCR4 expression on the human CD34+ cell line KG-1a
# Experiment: Fucoidan-induced CXCR4 expression on KG-1a cells (flow cytometry)
# Format: cell-based
# Settings: KG-1a incubated with the agonist alone
# Excerpt: Immunostaining for CXCR4 expression induced by L-selectin ligands: The binding of Fucoidan to L-selectin results in externalization of pre-made CXCR4 onto the cell surface, followed by internalization, creating a window in time for responsiveness to chemotactic factors. This system was used to examine whether AFA-W would compete with Fucoidan for binding to L-selectin on the leukocyte cell surface, and to assess whether it would block this functional effect from another L-selectin ligand. To do so, freshly purified human PBMC were resuspended in RPMI, and distributed in a series of round-bottom microwells. Fucoidan was added to one series of wells, AFA-W to another series, and a mixture of Fucoidan and AFA-W was added to the third series of wells. […] Cells were washed in phosphate-buffered saline containing azide, stained with CXCR4-PE using the staining protocol described above, fixed in formalin, and analyzed by flow cytometry.
# The primitive cell line KG-1a is brightly positive for CD34 and for L-selectin, as evaluated by staining with the TQ1 monoclonal antibody. […]
# The expression of CXCR4 receptors following exposure to fucoidan was evaluated on lymphocytes using flow cytometry.
substance,measurement,value
Fucoidan,effect on expression of the chemokine receptor CXCR4,triggers the expression
